For 89 compounds, melting point results are on record in a melting point compilation (Tetko et al.; mined from patent text by program, amines drawn as free bases though some values may be those of a salt).

The term melting point denotes the temperature of the solid-liquid transition. `O=c1cc(NCCN2CCN(c3ccc(F)cc3)CC2)cn[nH]1` yielded a melting point of 96 to 98 °C.

`C=CCN1CC(=O)N(c2c(C)cccc2C)C1=S`: the melting point lay in the range of 43 to 46 °C.

`CC(C)(C)OC(=O)Nc1cc(-c2nnc(SCc3cccc(F)c3)o2)ccn1`: the melting point was in the range of 237 to 238 °C. Turning to `CC12CC(N3CCCCC3)C(O)CC1CCC1C2CCC2(C)C(O)C(N3CCC4(CC3)OCCO4)CC12` (centres undefined), the melting point is 183 to 185 °C. With `CC(=S)NCC1CN(c2ccc(S(=O)CCF)c(F)c2)C(=O)O1` (centres undefined), the melting point was 161 °C. As for `O=C(NCc1ccccn1)Nc1cc(-n2c(=O)oc3ccccc32)ccn1`, the figure is 237 to 238 °C. On to `O=C(/C(=C\c1ccc(I)cc1)Sc1ccc(Br)cc1)c1ccc(Br)cc1`, for which the melting point fell in the range of 128 to 130 °C. As to `O=[N+]([O-])c1cccc(-c2ccnc3c(-c4ccsc4)cnn23)c1`, the melting point fell in the range of 148 to 150 °C. `O=c1cnc2c(NC(CO)CO)nc(SCc3cccc(Cl)c3F)nc2[nH]1` had a melting point of 218 to 220 °C.

In turn, `CC=Cn1c(=S)sc2c(=N)n(NC(=O)c3ccco3)cnc21` showed a melting point of 218 °C. On to `CC(C)(CC/C=C\[C@@H]1C[C@@H](NS(=O)(=O)c2ccc(Cl)cc2)CN1S(=O)(=O)c1ccc(Cl)cc1)C(=O)O`, for which the melting point lay within 159 to 160 °C. `Cc1ccc(-c2c(-c3ccc(S(C)(=O)=O)cc3)cnn(-c3cccc(Cl)c3)c2=O)cc1` showed a melting point of 222 to 224 °C.

`O=c1[nH]c2cc(Br)c3c(c2[nH]c1=O)CN(CCCc1ccccc1)CC3` had a melting point of 288 to 293 °C. To `COc1cc(C(=O)NS(=O)(=O)c2ccccc2Cl)ccc1Cc1cn(C)c2ccc(CC3CCN(C)C3=O)cc12` (centres undefined) belongs 128 to 135 °C; to `Cc1nc(Sc2cc(C(F)(F)F)ccn2)sc1CC(=O)O`, 122 to 123 °C. As for `COC(=O)Cn1cnc(N2CCc3ccccc3CC2)c(C#N)c1=O`, the melting point was in the range of 156 to 160 °C. In turn, `N#Cc1ccc(SC2SCC(O)C(O)C2O)cc1` (centres undefined) registered a melting point of 175 °C. Compound `O=C(C1NCCc2sccc21)N1CCCC1` (centres undefined) came in with a melting point of 114 to 116 °C. For `CC(C)OCc1cnc2c([N+](=O)[O-])cccc2c1Cl`, the melting point was 83 to 86 °C. `Cc1ccsc1C1CC(=O)CC(=O)C1` returned a melting point of 166 to 168 °C. Turning to `CCOC(=O)N=C1N(c2c(C)cccc2C)CC(C)N1c1c(C)cccc1C` (centres undefined), the melting point lay within 124 to 125 °C. `O=C(CC(=O)C(F)F)c1ccc(N2CCOCC2)cc1` gave a melting point of 102 to 103 °C. As for `O=C(NNc1ccc(NC(=S)Nc2ccccc2)cc1)C(F)(F)F`, the figure is 172 to 174 °C.

For the compound `Cc1cc(-c2nnc3c4ccccc4c(OCn4cccn4)nn23)no1`, the melting point is 235 to 237 °C. As for `O=[N+]([O-])c1ccc(-c2cccnc2)cc1`, the figure is 145 to 148 °C; as for `CC1=C(C(=O)c2ccc(C(=O)O)cc2)C(=O)C2C=CC=CC2C1=O` (centres undefined), 201 °C; as for `CCC1(c2ccc(Cl)cc2)OCc2c1cnc(C)c2O` (centres undefined), 215 °C. The compound `COc1cc(C(O)CN2CCC(O)(c3ccccc3)CC2)on1` (centres undefined) came in with a melting point of 166 to 168 °C. For the compound `CN(Cc1cccc(-c2ccc(O)cc2)c1)C(=O)OC(C)(C)C`, the melting point was determined as 174 °C. For the compound `O=C(O)c1ccc(OC(F)F)c2oc3ccc([N+](=O)[O-])cc3c12`, the melting point was over 270 °C. `CN(C)CCNC1=C(Br)C(=O)c2sc(C(=O)N3CCN(C(=O)C4CCCO4)CC3)nc2C1=O` (centres undefined) yielded a melting point of 161 to 162 °C.

As for `CCCCCCCCCCCCc1nnn(C(C(=O)O)C(C)C)n1` (centres undefined), the melting point is 39 to 42 °C. Regarding `Cc1c(-c2cnccn2)ssc1=S`, the melting point was determined as 164 °C.

As for `Cc1c(C)c2ccc(OCCCCCc3ccccc3)cc2oc1=O`, the melting point worked out at 101 °C.

As to `CC(C)Oc1ccc(NC(=S)NCc2ccoc2)cc1`, the melting point was 89 to 90 °C.

In the case of `CC(=O)NCCCCC(=O)OC1c2ccccc2C(=O)N1c1ccc2ccc(Cl)nc2n1` (centres undefined), the melting point was 185 °C. For the compound `COc1ccc(C2=NOC3(CCOC3=O)C2)cc1OC1CCCC1` (centres undefined), the melting point lay in the range of 152 to 153 °C. In turn, `COC(=O)CN(C)c1cccc(Br)n1` showed a melting point of 47 to 48 °C.

In the case of `O=C1CCC2CCCC3CC(=O)N1C23` (centres undefined), the melting point was in the range of 118 to 120 °C. Consider `CN(C)C(=O)C1Cc2c([nH]c3ccccc23)C(c2ccc3c(c2)OCO3)N1C(=O)C=Cc1ccccc1` (centres undefined), for which the melting point fell in the range of 175 to 178 °C. As to `O=[N+]([O-])OCCNC(=S)Cc1ccccc1`, the melting point fell in the range of 63 to 65 °C. In turn, `COC(=O)c1ccccc1NC(=O)c1ccc(OC)cc1` registered a melting point of 122 to 124 °C. In turn, `COc1c2c(nc3ccccc13)CCNCC2` gave a melting point of 112 °C.

`CCCc1nn(-c2ccc(C(F)(F)F)cn2)cc1CCCCOc1cccc(CC(=O)O)c1` yielded a melting point of 96 to 97 °C. On to `O=C(CN1CCN(CCCC(c2ccc(F)cc2)c2ccc(F)cc2)C(C(=O)O)C1)Nc1c(Cl)cccc1Cl` (centres undefined), for which the melting point is 204 °C. To `Oc1cccc(-n2nnnc2S)c1` belongs 176 to 178 °C; to `Cn1cc(C(=O)NCc2ccc(Cl)cc2)c(=O)c2cc(CN3CCOCC3)cc(C#CCN3CCS(=O)(=O)CC3)c21`, 220 to 222 °C. Regarding `C=CCc1nc(CC)n2nc(-c3cc(I)cnc3OCCCC)[nH]c(=O)c12`, the melting point lay in the range of 134 to 135 °C. `COc1cc(OC)cc(S(=O)(=O)c2ccc(N)cc2)c1` yielded a melting point of 128 to 130 °C. To `OCC1(Oc2ccc3c(c2)c(-c2cc4cccnc4[nH]2)cn3C2(CO)CCC2)CCC1` belongs 165 to 166 °C; to `CC(=O)Oc1cccc(C(=O)Nc2nc(S(C)(=O)=O)cs2)c1`, 209 to 212 °C; to `COc1ccc2c(c1)[C@H]1Cc3ccccc3[C@H]1N2` (relative stereo), 101 °C.

Consider `CS(=O)(=O)C(=C1CN(C(c2ccccc2)c2ccccc2)C1)c1cccc(F)c1F`, for which the melting point was 208 °C.

On to `Cc1ccc(-c2ssc(=S)c2C)nn1`, for which the melting point is 168 °C. Take `CN(Cc1ccc2c(Br)c(O)ccc2c1)C(=O)c1cn(Cc2ccccc2)c2ccccc12`: the melting point was in the range of 181 to 182 °C. `CCC(=O)N[C@@H](C)C(=O)N1CCC[C@H]1C(=O)NC1CCCC1` showed a melting point of 172 to 173 °C. Compound `S=C(NC1CCCc2sccc21)C1CCNCC1` (centres undefined) showed a melting point of 102 °C. Compound `COC(=O)C1=C(SC)N(c2c(C)cc(C)cc2Cl)CCC1` yielded a melting point of 85.3 to 87.6 °C.

In the case of `CS(=O)(=O)c1cccc(NC(=O)c2cnn3c(C(F)(F)F)cc(-c4ccc(C(F)(F)F)c(OCC(F)(F)F)c4)nc23)c1`, the melting point was 227 °C. On to `CC1CN(c2ccc(NC=C3C(=O)NC(=O)c4ccc(Br)cc43)cc2)CC(C)N1` (centres undefined), for which the melting point is 229 to 230 °C. As for `O=c1c2ccc(Cl)cc2n(Cc2ccccc2)n2cccc12`, the figure is 163 to 165 °C; as for `CCOC(=O)c1cnn2c1c(Cl)nc1ccccc12`, 105 to 106 °C; as for `CCSC1=NCC(=O)N1c1cc(Cl)ccc1OC`, 113 to 115 °C. To `O=C(COc1cc(C(=O)O)c(O)c2ccccc12)Nc1ccccc1` belongs 165 to 166 °C; to `C=CCc1cc(C(=O)OC)ccc1OCCCCCOc1ccc2c(=O)cc(C(=O)OC)oc2c1CCC`, 87 to 88 °C.

Regarding `COc1ccc2nc(COc3ccc(CC(SC(C)=O)C(=O)O)cc3)n(C)c2c1` (centres undefined), the melting point was in the range of 209 to 214 °C.

As for `Cc1ccccc1-c1ccc2ccccc2c1C(=O)N(C)C`, the melting point lay in the range of 108 to 109 °C.

`Brc1ccc(-c2ccnc(-c3ccccc3)n2)cc1`: the melting point stood at 107 °C. Consider `CC(=O)OCc1ccc2oc(=O)c(C(=O)Oc3cc(F)ccc3[N+](=O)[O-])cc2c1`, for which the melting point is 157 to 161 °C. For the compound `CC(C)(C)OC(=O)N1C(=O)[C@H](O)[C@@H]1c1ccccc1`, the melting point was 132 °C. `CC=COCCC[C@H]1CC[C@H](c2cccc(F)c2F)CC1` returned a melting point of 35.5 to 36.9 °C. `O=c1nc(-c2cc(-c3ccccc3)ccn2)sc2ccccc12`: the melting point was 164 to 165 °C. The compound `COc1cc(C=CC(=O)OC2C(O)C=C(C)C(=O)CC2(C)C)ccc1O` (centres undefined) displayed a melting point of 125 to 127 °C. `c1ccc2c(c1)Cn1cccc1C1CNCCN21` (centres undefined): the melting point fell in the range of 56 to 58 °C. `CN1CCN(c2ccccc2C=C2CCCN(c3ccc(Cl)cc3)C2=O)CC1` came in with a melting point of 177 to 178 °C. With `O=C(c1ccc(-c2ccsc2)cc1Cl)c1cccc2c1Nc1ncccc1CN2`, the melting point fell in the range of 125 to 130 °C. `CC1(C)C(Cl)C(=O)C1CC(Cl)(Cl)Cl` (centres undefined) had a melting point of 56 to 57 °C. `Cc1nnc(-c2ccc3occ(-c4ccc(S(C)=O)c(OC(F)(F)F)c4)c3c2)o1` (centres undefined) gave a melting point of 182 to 183 °C. Compound `O=C(CCC1CCCC1)Nc1ccc(NC(=O)CCC2CCCC2)c2c1C(=O)c1ccccc1C2=O` registered a melting point of 166 to 167 °C. `CC(C)CCN1C(=O)C2(COc3cc4c(cc32)OCCO4)c2ccccc21` (centres undefined) came in with a melting point of 134 to 137 °C.

In turn, `Cc1cc(-c2ccc(S(C)(=O)=O)cc2)n(-c2ccc(Br)cc2)c1C` displayed a melting point of 215 to 219 °C. As for `O=C(O)CNC(=O)C(NC(=O)c1ccccc1)SC(=O)c1ccccc1` (centres undefined), the figure is 162 to 164 °C.

The compound `CCOC(=O)/C=C/c1ccc(OCCOC)cc1OCc1ccc(Cl)cc1Cl` returned a melting point of 101 °C. In the case of `Cc1[nH]c(=O)cnc1-c1ccc(NC(=O)OCc2ccccc2)cc1`, the melting point was 232 °C.

`O=C1CCN(CC=Cc2ccccc2)CC1C(c1ccccc1)c1ccccc1` (centres undefined): the melting point lay in the range of 114 to 115 °C. Turning to `Fc1ccc(C2CCC3(CC2)OCCO3)cc1`, the melting point is 51 to 53 °C. With `CCC1OC(=O)CC(O)C(C)C(OC2OC(C)CC(N(C)C)C2O)C(CC=O)CC(C)C(=O)C=CC2(C)OC2C1C` (centres undefined), the melting point was in the range of 128 to 130 °C. The compound `Cn1c(=O)nc(-c2ccccc2)c2cc(Cl)sc21` showed a melting point of 136 to 140 °C.

`CN(C)CCCNC(=O)N1C(=O)Cc2cc(Cl)ccc21` registered a melting point of 84 to 85 °C.
